Measured values as given in US20090270342A1, “IMMUNOREGULATORY AGENT” (priority 2006, published 2009).

Tests used:
[1] = system: cedar- and Japanese cypress-pollen disease; assay: Clinical symptom scores in cedar- and Japanese cypress-pollen allergy, double blind test (Experiment 8); assay type: in vivo, human
Description: In Experiments 4 to 7, it was confirmed that the production of IgE and cytokines, which involves in allergic symptoms, is suppressed by ingesting lactosucrose. Based on the results, an experiment for investigating the suppressing effect of lactosucrose on the clinical symptoms caused by ceder- and Japanese cypress-pollen was carried out as follows. Volunteers who had been self-diagnosed to have allergic symptoms of nose or eyes at a season of cedar- and Japanese cypress-pollen (February to May) in the past two to three years, were recruited as subjects. An interview about the clinical symptoms of nose and eyes for the past two to three years was carried out to the applied volunteers with referencing a guideline for the diagnosis of pollinosis, “HANA ALLERGY SHINDAN GUIDELINE—TUNENSEI BIEN TO KAFUNSHO—2005 NENDO-BAN (Guideline for the diagnosis of nose allergy—chronic allergic rhinitis and pollinosis 2005 edition)”, edited by the committee for the guideline for the diagnosis of nose allergy, published by Life Science pp. 20-24 (2006). Based on the results, 40 persons estimated to be cedar- and Japanese cypress-pollen disease were selected as subjects. The subjects were divided into two groups, a test group ingesting lactosucrose (ingesting 3 g of lactosucrose every day) and a control group ingesting placebo, regarding with a score of clinical symptoms of the subjects. Then, “NYU-KA OLIGO 700”, a 76% (w/w)-solid content syrup, comprising lactosucrose, commercialized by Hayashibara Shoji Inc., Okayama, Japan, which comprises 71.5% (w/w) of lactosucrose, 13.7% (w/w) of sucrose, 7.5% (w/w) of lactose, and 7.3% (w/w) of other saccharides, on a dry solid basis, was repackaged into aluminum pillowcases with about 6 g/package (3 g of lactosucrose/package) and the resulting packages were distributed to the subjects of the lactosucrose-ingesting group. In the same manner, “CORN SUGAR A-33”, an about 75% (w/w)-solid content isomerized sugar syrup comprising sucrose, commercialized by Sanwa Cornstarch Co., Ltd., Nara, Japan, which comprises 33.5% (w/w) of sucrose, 33.7% (w/w) of glucose, and 29.2% (w/w) of fructose, on a dry solid basis, was repackaged into packages with about 6 g/package similarly as in the above and distributed to the subjects of the placebo-ingesting group. The ingestion was started at Jan. 16, 2007 (zero week), before the beginning of cedar-pollen season, and then subjects were allowed to ingest one package of the test substance at any time every day for 18 weeks. The methods for ingesting the test substance were not restricted and the subjects were permitted to ingest directly from the package or after mixing with other foods and beverages. The experiment was carried out with double blind test and the subjects were not restricted except for ingesting the test substance and were allowed to take medicines including an anti-allergic agent. For evaluating the suppression of allergic symptoms by ingesting the test substance, questionnaire survey was carried out to subjects about clinical symptoms of nose and eyes and difficulties on daily life once per week for 21 weeks, from one week before from starting the ingestion of the test substance to two weeks after of the end of the ingestion. The first questionnaire survey was carried out […]. Based on the respective result of the questionnaire of the group ingesting lactosucrose and the control group, the effects were evaluated by scores determined with regarding the suppressive effect on allergic symptoms of medicines such as an anti-allergic agent used during the test period. […] 9, 2007; the beginning of March; and the end of March; respectively, in the test area, the southern part of Okayama Prefecture. […] 27, 2007; and the end of April in the test area. Accordingly, the ingestion of the test substance in the experiment was started about three weeks before the cedar pollen season. […]

IgA in feces = assay: Amount of IgA in feces of mice ingesting lactosucrose diet (Experiment 1); assay type: in vivo; settings: Lactosucrose 5% (w/w) diet
Description: An experiment for investigating the effect of lactosucrose ingestion on the enhancement of gut immunity was carried out by measuring the amount of IgA in feces of mice. Female BALB/c mice (six weeks old) were preliminary reared for one week on “AIN-93G”, containing 40% (w/w) of corn starch, 20% (w/w) of casein, 13.2% (w/w) of α-corn starch, 10% (w/w) of sucrose, 7% (w/w) of soybean oil, 5% (w/w) of cellulose, 3.5% (w/w) of mineral mixture, 1% (w/w) of vitamin mixture, 0.3% (w/w) of L-cystine, and 0.0014% (w/w) of hydroquinone, which is a standard purified diet for researching the nutrition of mice and rats published by American National Institute of Nutrition in 1993. Successively, “LS-90P”, a saccharide composition comprising 91.8% (w/w), onadrysolid basis, of lactosucrose commercialized by ENSUIKO Sugar Refining Co., Ltd., Tokyo, Japan, was incorporated into the above purified diet, in which corn starch equal to the amount of the saccharide composition comprising lactosucrose had been removed, to give a lactosucrose content of 5% (w/w), and five mice/group were allowed to ingest the resulting test diet freely. Mice, allowed to ingest “AIN-93G”, as the standard purified diet, were used as control. Then, fresh feces were collected from the mice at one week, two weeks, three weeks, and four weeks after starting the administration of the test diet and the control diet, and the amount of IgA in the feces was measured by ELISA using anti-IgA antibody (Mouse IgA ELISA Quantitation Kit produced by Bethyl Laboratories, Inc., Texas, USA). The amount of IgA was expressed by mg/g-wet feces and the average value of those from five mice was determined. The percentages in parentheses in Table 1 mean relative values to those of the control at respective weeks.

[2] = system: IgA and IgG in cecal content; assay: pH, weight, IgA and IgG of cecal content (Experiment 2); assay type: in vivo, mice; settings: Lactosucrose 5% (w/w) diet, four weeks
Description: The effect of lactosucrose on the enhancement of gut immunity was investigated by measuring the amounts of IgA and IgG in cecal content. Mice reared for four weeks on the test diet comprising 5% (w/w) of lactosucrose or the control diet, “AIN-93G”, in Experiment 1 were sacrificed and the cecums were extirpated. Successively, the cecal content in each mouse was collected from the cecum and the pH, weight, the amounts of IgA and IgG were measured. The amounts of IgA and IgG were determined by ELISA using an anti-IgA antibody and that using an anti-IgG antibody (Mouse IgG ELISA Quantitation Kit produced by Bethyl Laboratories, Inc., Texas, USA), and expressed by mg/g-cecal content and ng/g-cecal content, respectively. The percentages in parentheses in Table 2 mean the relative values to those of the control.

[3] = 3 g of lactosucrose every day, after the start of ingesting the test substance

SMILES: OC[C@H]1O[C@@H](O[C@H]2[C@H](O)[C@@H](O)[C@@H](O[C@]3(CO)O[C@H](CO)[C@@H](O)[C@@H]3O)O[C@@H]2CO)[C@H](O)[C@@H](O)[C@H]1O [Lactosucrose, β-D-galactosyl-(1,4)-α-D-glucosyl-(1,2)-β-D-fructoside]
- Generation of clinical symptoms and difficulties on daily life in comparison with the control group ([1]; 3 g of lactosucrose every day (NYU-KA OLIGO 700), 18 weeks, human pollinosis subjects): delayed by one week
- Score of clinical symptoms of nose compared with the control group ([1]; 3 g of lactosucrose every day, 18 weeks, FIG. 1): kept lower value than those of the control group during four to 10 weeks
- Score of clinical symptoms of eyes compared with the control group ([1]; 3 g of lactosucrose every day, 18 weeks, FIG. 2): lower than those of the control group though the test period
- Score of difficulties on daily life compared with the control group ([1]; 3 g of lactosucrose every day, 18 weeks, FIG. 3): lower than those of the control group though the test period
- Time at which the score of clinical symptoms of eyes reached a peak [1, 3]: eight weeks
- Time at which the score of clinical symptoms of nose reached a peak [1, 3]: seven weeks
- Time at which the score of difficulties on daily life reached a peak [1, 3]: seven weeks
- Amount of IgA in feces, relative value to control (IgA in feces; 1 week after): (232%)
- Amount of IgA in feces (IgA in feces; 1 week after (8 weeks old)): 13 ± 2.6 mg/g
- Amount of IgA in feces, relative value to control (IgA in feces; 2 weeks after): (285%)
- Amount of IgA in feces (IgA in feces; 2 weeks after (9 weeks old)): 5.7 ± 2.3 mg/g
- Amount of IgA in feces, relative value to control (IgA in feces; 3 weeks after): (543%)
- Amount of IgA in feces (IgA in feces; 3 weeks after (10 weeks old)): 7.6 ± 1.4 mg/g
- Amount of IgA in feces, relative value to control (IgA in feces; 4 weeks after): (755%)
- Amount of IgA in feces (IgA in feces; 4 weeks after (11 weeks old)): 8.3 ± 1.9 mg/g
- IgA in cecal content [2]: 5.6 ± 1.6 mg/g
- IgA in cecal content, relative value to control [2]: (982%)
- IgG in cecal content [2]: 140 ± 54 ng/g
- IgG in cecal content, relative value to control [2]: (117%)
- Weight of cecal content [2]: 0.22 ± 0.051 g
- Weight of cecal content, relative value to control [2]: (169%)
- pH of cecal content [2]: 6.63 ± 0.27
- Increase of the amount of secreted IgA in cecal content ([2]; versus control): about 10 folds
